{"source": "paper PMC10004417", "about": "“Screening of Potential α-Glucosidase Inhibitors from the Roots and Rhizomes of Panax Ginseng by Affinity Ultrafiltration Screening Coupled with UPLC-ESI-Orbitrap-MS Method” (Molecules, 2023)", "assay_in_all_cases": "pNPG enzyme inhibition assay, % inhibition at […]; also affinity ultrafiltration LC-MS (PAR […])", "format_in_all_cases": "biochemical", "conditions_in_all_cases": "read-out: Inhibitory (%)", "key": {"α-Glucosidase [1]": {"biological_target": "T1, α-Glucosidase (Saccharomyces cerevisiae, UniProt P53341)", "T1 construct": "gene MAL12", "T1 sequence (P53341 whole entry)": "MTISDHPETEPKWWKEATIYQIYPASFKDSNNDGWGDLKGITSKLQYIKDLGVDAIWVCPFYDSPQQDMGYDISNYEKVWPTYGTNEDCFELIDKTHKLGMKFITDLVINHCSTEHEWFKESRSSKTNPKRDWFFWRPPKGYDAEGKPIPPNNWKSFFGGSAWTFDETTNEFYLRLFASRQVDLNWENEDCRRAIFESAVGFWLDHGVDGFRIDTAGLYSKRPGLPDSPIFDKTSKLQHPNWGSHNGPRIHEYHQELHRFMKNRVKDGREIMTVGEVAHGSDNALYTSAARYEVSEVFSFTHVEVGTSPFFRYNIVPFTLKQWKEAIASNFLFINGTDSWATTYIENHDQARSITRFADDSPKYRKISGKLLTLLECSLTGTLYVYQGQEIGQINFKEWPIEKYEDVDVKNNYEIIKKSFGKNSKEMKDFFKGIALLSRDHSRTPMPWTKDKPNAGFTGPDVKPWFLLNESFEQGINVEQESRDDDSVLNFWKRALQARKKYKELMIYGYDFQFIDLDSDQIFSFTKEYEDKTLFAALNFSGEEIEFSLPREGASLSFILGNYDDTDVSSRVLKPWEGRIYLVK"}, "α-Glucosidase [2]": {"biological_target": "T1, α-Glucosidase", "remark": "listed apart in the source"}, "α-Glucosidase [3]": {"biological_target": "T1, α-Glucosidase", "remark": "listed apart in the source"}}, "note": "Like-named read-outs stand apart in the source and are kept apart here.", "data": [{"smiles": "C=C(CCC=C(C)C)[C@H]1CC[C@]2(C)C1[C@H](O)CC1[C@@]3(C)CC[C@H](O)C(C)(C)C3[C@@H](OC3O[C@H](CO)[C@@H](O)[C@H](O)[C@H]3OC3O[C@@H](C)[C@H](O)[C@@H](O)[C@H]3O)C[C@]12C", "note": "(stereo partly drawn) [R3, ginsenoside Rg6]", "values": [{"measurement": "inhibition at 40000 µM", "setting": "α-Glucosidase [1]", "result": 27.4, "unit": "%"}]}, {"smiles": "CC1(C)CC[C@]2(C(=O)O[C@@H]3O[C@H](CO)[C@@H](O)[C@H](O)[C@H]3O)CC[C@]3(C)C(=CC[C@@H]4[C@@]5(C)CC[C@H](O[C@@H]6O[C@H](C(=O)O)[C@@H](O)[C@H](O)[C@H]6O[C@@H]6O[C@H](CO)[C@@H](O)[C@H](O)[C@H]6O)C(C)(C)[C@@H]5CC[C@]43C)[C@@H]2C1", "note": "[R8, ginsenoside Ro]", "values": [{"measurement": "inhibition at 40000 µM", "setting": "α-Glucosidase [2]", "result": 20.2, "unit": "%"}]}, {"smiles": "CC(C)=CCC[C@](C)(OC1O[C@H](COC2O[C@@H](CO)[C@H](O)[C@H]2OC2OC[C@@H](O)[C@H](O)[C@H]2O)[C@@H](O)[C@H](O)[C@H]1O)C1CC[C@]2(C)C1[C@H](O)CC1[C@@]3(C)CC[C@H](OC4O[C@H](CO)[C@@H](O)[C@H](O)[C@H]4OC4O[C@H](CO)[C@@H](O)[C@H](O)[C@H]4O)C(C)(C)C3CC[C@]12C", "note": "(stereo partly drawn) [R11, ginsenoside Ra2]", "values": [{"measurement": "inhibition at 40000 µM", "setting": "α-Glucosidase [3]", "result": 29.5, "unit": "%"}]}]}
